From PubChem BioAssay AID248 (DTP/NCI, 2004)
Several values for one entry are separate records, joined by “and”; a condition that tells them apart may be missing. Equal entries are not always repeated. Toxic doses and inconclusive results are not listed. No stated cut-off is given here; in the data, active means T/C of 150% or more; inactive means T/C below 125%.

System: L1210 leukemia ip in BDF1 mice, survival T/C
Assay: NCI In Vivo Anticancer Drug Screen. Data for tumor model L1210 Leukemia (intraperitoneal) in B6D2F1 (BDF1) mice
Conditions: endpoint: mean survival time, higher = longer survival
Summary of the method: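 Read-out is survival time, reported as the treated-group measurement over the vehicle-control measurement.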

[1] = dose: 100.0 mg/kg/injection, schedule: Q01DX009 (ip), vehicle: saline with Tween-80
[2] = dose: 100.0 mg/kg/injection, schedule: Q04DX003 (ip), vehicle: saline with Tween-80
[3] = dose: 200.0 mg/kg/injection, schedule: Q01DX009 (ip), vehicle: saline with Tween-80
[4] = dose: 200.0 mg/kg/injection, schedule: Q04DX003 (ip), vehicle: saline with Tween-80
[5] = dose: 400.0 mg/kg/injection, schedule: Q04DX003 (ip), vehicle: saline with Tween-80
[6] = dose: 50.0 mg/kg/injection, schedule: Q01DX009 (ip), vehicle: Klucel (hydroxypropylcellulose) (HPC)
[7] = dose: 50.0 mg/kg/injection, schedule: Q04DX003 (ip), vehicle: Klucel (hydroxypropylcellulose) (HPC)
[8] = dose: 100.0 mg/kg/injection, schedule: Q01DX001 (ip), vehicle: carboxymethylcellulose (CMC)
[9] = dose: 100.0 mg/kg/injection, schedule: Q01DX009 (ip), vehicle: Klucel (hydroxypropylcellulose) (HPC)
[10] = dose: 100.0 mg/kg/injection, schedule: Q04DX003 (ip), vehicle: Klucel (hydroxypropylcellulose) (HPC)
[11] = dose: 200.0 mg/kg/injection, schedule: Q01DX001 (ip), vehicle: carboxymethylcellulose (CMC)
[12] = dose: 200.0 mg/kg/injection, schedule: Q01DX009 (ip), vehicle: Klucel (hydroxypropylcellulose) (HPC)
[13] = dose: 200.0 mg/kg/injection, schedule: Q04DX003 (ip), vehicle: Klucel (hydroxypropylcellulose) (HPC)
[14] = dose: 400.0 mg/kg/injection, schedule: Q01DX001 (ip), vehicle: carboxymethylcellulose (CMC)
[15] = dose: 100.0 mg/kg/injection, schedule: Q01DX001 (sc), vehicle: steriod suspending solution
[16] = dose: 200.0 mg/kg/injection, schedule: Q01DX001 (sc), vehicle: steriod suspending solution
[17] = dose: 400.0 mg/kg/injection, schedule: Q01DX001 (sc), vehicle: steriod suspending solution
[18] = dose: 100.0 mg/kg/injection, schedule: Q01DX001 (ip), vehicle: saline
[19] = dose: 200.0 mg/kg/injection, schedule: Q01DX001 (ip), vehicle: saline

Measured: T/C

CCCCOC(=O)c1cocc1C(=O)OCCCC
inactive: [1] 99 % of control | [2] 98 % of control | [3] 92 % of control | [4] 104 % of control | dose: 400.0 mg/kg/injection, schedule: Q01DX009 (ip), vehicle: saline with Tween-80 90 % of control | [5] 93 % of control

CCc1ccc(C(C)=O)o1
inactive: dose: 100.0 mg/kg/injection, schedule: Q01DX001 (ip), vehicle: other 104 % of control | dose: 200.0 mg/kg/injection, schedule: Q01DX001 (ip), vehicle: other 108 % of control | dose: 400.0 mg/kg/injection, schedule: Q01DX001 (ip), vehicle: other 111 % of control

O=C(Oc1ccc(Cl)cc1Cl)Oc1ccc(Cl)cc1Cl
inactive: dose: 50.0 mg/kg/injection, schedule: Q01DX001 (ip), vehicle: carboxymethylcellulose (CMC) 98 % of control | [6] 105 % of control | [7] 98 % of control | [8] 104 % of control | [9] 100 % of control | [10] 95 % of control | [11] 104 % of control | [12] 103 % of control | [13] 106 % of control | [14] 93 % of control

CC(=O)OC(CO)C(NC(=O)N1C(=O)C=CC1=O)NC(=O)N1C(=O)C=CC1=O (configuration not stated)
inactive: [8] 95 % of control | [11] 101 % of control | [14] 113 % of control

CC(C)(C)C(C(=O)O)C(=O)O
inactive: dose: 50.0 mg/kg/injection, schedule: Q04DX002 (ip), vehicle: saline 98 % of control | dose: 100.0 mg/kg/injection, schedule: Q04DX002 (ip), vehicle: saline 98 % of control | dose: 200.0 mg/kg/injection, schedule: Q04DX002 (ip), vehicle: saline 92 % of control

CC12CCC3C(CC4OC45CC(O)CCC35C)C1CCC21CO1 (configuration not stated)
inactive: dose: 50.0 mg/kg/injection, schedule: Q01DX001 (sc), vehicle: steriod suspending solution 98 % of control | [15] 104 % of control | [16] 95 % of control | [17] 101 % of control

O=S(=O)(NC(CCl)=NCc1ccccc1)c1ccccc1
inactive: dose: 100.0 mg/kg/injection, schedule: Q04DX002 (ip), vehicle: Klucel (hydroxypropylcellulose) (HPC) 96 % of control | dose: 200.0 mg/kg/injection, schedule: Q04DX002 (ip), vehicle: Klucel (hydroxypropylcellulose) (HPC) 100 % of control | dose: 400.0 mg/kg/injection, schedule: Q04DX002 (ip), vehicle: Klucel (hydroxypropylcellulose) (HPC) 86 % of control

CN(C)C(=S)SCc1c(Cl)c(Cl)c(Cl)c(Cl)c1Cl
inactive: [10] 105 % of control | [13] 100 % of control | dose: 400.0 mg/kg/injection, schedule: Q04DX003 (ip), vehicle: Klucel (hydroxypropylcellulose) (HPC) 94 % of control

CN1CCCCCC(=N\O)/C(=N/O)CCCCC1
inactive: dose: 50.0 mg/kg/injection, schedule: Q01DX001 (ip), vehicle: saline 101 % of control | [18] 103 % of control | [19] 100 % of control

CCCCCCCCCCCC[N+](C)(C)Cc1ccccc1
inactive: dose: 1.56 mg/kg/injection, schedule: Q01DX009 (ip), vehicle: saline 106 % of control | dose: 3.12 mg/kg/injection, schedule: Q01DX009 (ip), vehicle: saline 111 % of control | dose: 3.12 mg/kg/injection, schedule: Q04DX003 (ip), vehicle: saline 98 % of control | dose: 6.25 mg/kg/injection, schedule: Q04DX003 (ip), vehicle: saline 104 % of control | dose: 12.5 mg/kg/injection, schedule: Q01DX001 (ip), vehicle: saline 103 % of control

O=C1OC(O)c2cccc3cccc1c23 (configuration not stated)
inactive: dose: 12.5 mg/kg/injection, schedule: Q01DX009 (ip), vehicle: saline with Tween-80 93 % of control and 89 % of control

O=C(Cc1ccccc1)c1ccc2c3c(ccc([N+](=O)[O-])c13)CC2
inactive: dose: 100.0 mg/kg/injection, schedule: Q04DX003 (ip), vehicle: acetone 101 % of control | dose: 200.0 mg/kg/injection, schedule: Q04DX003 (ip), vehicle: acetone 105 % of control | dose: 400.0 mg/kg/injection, schedule: Q04DX003 (ip), vehicle: acetone 105 % of control

c1ccc2sc(SSN3CCOCC3)nc2c1
inactive: [6] 97 % of control | [9] 113 % of control | dose: 100.0 mg/kg/injection, schedule: Q04DX003 (ip), vehicle: saline 101 % of control | [12] 91 % of control | dose: 200.0 mg/kg/injection, schedule: Q04DX003 (ip), vehicle: saline 92 % of control

O=c1ccn(Cc2cccc(OCCCc3ccccc3)c2)c(=O)[nH]1
inactive: [9] 96 % of control | [12] 102 % of control | dose: 400.0 mg/kg/injection, schedule: Q01DX009 (ip), vehicle: Klucel (hydroxypropylcellulose) (HPC) 97 % of control

O=C1C=C/C(=N/c2ccc(O)o2)c2ccccc21
inactive: dose: 150.0 mg/kg/injection, schedule: Q01DX001 (ip), vehicle: saline 100 % of control

Cc1c2ccccc2[n+](C)c2ccc3ccccc3c12
inactive: dose: 75.0 mg/kg/injection, schedule: Q01DX001 (ip), vehicle: carboxymethylcellulose (CMC) 94 % of control | dose: 150.0 mg/kg/injection, schedule: Q01DX001 (ip), vehicle: carboxymethylcellulose (CMC) 94 % of control | dose: 300.0 mg/kg/injection, schedule: Q01DX001 (ip), vehicle: carboxymethylcellulose (CMC) 96 % of control

O=C1NC2c3ccccc3CCC12 (configuration not stated)
inactive: dose: 100.0 mg/kg/injection, schedule: Q04DX002 (ip), vehicle: saline with Tween-80 102 % of control | dose: 200.0 mg/kg/injection, schedule: Q04DX002 (ip), vehicle: saline with Tween-80 100 % of control | dose: 400.0 mg/kg/injection, schedule: Q04DX002 (ip), vehicle: saline with Tween-80 96 % of control

CN(C)c1ccc(-c2nc3ccccc3s2)cc1
inactive: [7] 105 % of control | [10] 100 % of control | [13] 96 % of control

O/N=C(/Cc1ccccc1)CC(O)(C(F)(F)F)C(F)(F)F
inactive: [18] 110 % of control | dose: 100.0 mg/kg/injection, schedule: Q01DX009 (ip), vehicle: saline 95 % of control | [19] 95 % of control | dose: 200.0 mg/kg/injection, schedule: Q01DX009 (ip), vehicle: saline 102 % of control | dose: 400.0 mg/kg/injection, schedule: Q01DX001 (ip), vehicle: saline 89 % of control | dose: 400.0 mg/kg/injection, schedule: Q01DX009 (ip), vehicle: saline 95 % of control

CC(=O)N=c1cc(-c2ccc(Cl)cc2)ss1
inactive: [2] 90 % of control | [4] 95 % of control | [5] 98 % of control

CCOC(=O)c1cnn(C(N)=O)c1N
inactive: [1] 108 % of control | [3] 96 % of control

COc1ccc2c(c1)CC[C@@H]1[C@@H]2CC[C@]2(C)/C(=N\O)CC[C@@H]12
inactive: [15] 100 % of control | dose: 100.0 mg/kg/injection, schedule: Q04DX003 (ip), vehicle: steriod suspending solution 102 % of control | [16] 100 % of control | dose: 200.0 mg/kg/injection, schedule: Q04DX003 (ip), vehicle: steriod suspending solution 100 % of control | [17] 97 % of control | dose: 400.0 mg/kg/injection, schedule: Q04DX003 (ip), vehicle: steriod suspending solution 97 % of control
